# Assay results reported in patent US20240197700A1, “Methods and Compositions for Treating Lysosomal Storage Disorders” (Sanford Health, priority 2021, published 2024).
# “Also recorded” adds a separate entry of the source.
# System: Cln3^Δex7/8 mice
# Assay: Astroglial activation (GFAP) in brain of Cln3^Δex7/8 mice
# Type: in vivo, mouse
# Method: FIG. 22(A-B). Short-term chronic treatment with semaglutide impacts glial activation in Cln3^Δex7/8 mice. Beginning at wean, wild type and Cln3^Δex7/8 mice were treated with vehicle or semaglutide 2.571 μg/mouse, 25.71 μg/mouse) through subcutaneous injections three times a week until sacrifice at 16 weeks. Upon sacrifice, a hemisphere of the brain was sectioned at 50 microns on a vibratome; DAB staining immunohistochemistry was then performed using anti-GFAP (Dako, Z0334; 1:5000), anti-CD68 (AbD Serotec, MCA1957; 1:2000), anti-rabbit biotinylated (Vector Labs, BA-1000 1:1000), and anti-rat (Vector Labs, BA-9400 1:1000). Sections were imaged and analyzed using an Aperio Digital Pathology Slide Scanner (AT2) and associated software. Images were extracted from S1BF of the somatosensory cortex, the CA3 of the hippocampus, and the VPM/VPL of the thalamus, key brain regions for Batten disease pathology. Percent area of immunoreactivity were quantified using a threshold analysis in ImageJ™. Statistical analyses were performed using GraphPad Prism™ (v8.4.3; San Diego, CA). […] Increasing concentrations of semaglutide and corresponding genotypes are shown along the x-axis. Nested one-way ANOVA. Mean±S.E.M. Sidak's multiple comparisons test. Compared to the wild type vehicle treated group #p<0.05, ##p<0.01, ###p<0.001, ####p<0.0001. Compared to mutant vehicle treated group *p<0.05, **p<0.01, ***p<0.001, ****p<0.0001.
# Specific experimental details are included in figure legends. In general, after collection and preparation, MEFs and PNCs were dosed with vehicle or AF38469 (40 nM, 400 nM. or 4 μM) on DIV3 and DIV5. On DIV7, cells were treated with the following dyes: Hoechst 33342 (1:1000 dilution), LysoTrackerT™ Red DND-99 (1:10,000 dilution), fixed, and imaged. Mice were given vehicle or AF38469 (78.125 μg/ml, 3.125 μg/ml, 0.3125 μg/ml or 0.03125 μg/ml equating approximately to 250 μg/mouse/day, 10 μg/mouse/day, 1 μg/mouse/day, and […], respectively, given a mouse's daily water intake of approximately 3.2 ml per day) in drinking water beginning at wean. Body weight was measured bi-weekly, and a force actimeter test was performed on Cln2^R207X mice at 10 weeks of age. Body weight was measured every month for Cln3^Δex7/8 mice. At 11 and 16 weeks of age, respectively, Cln2^R207X and Cln3^Δex7/8 mice along with age matched wild type control mice were CO2 euthanized and intracardially perfused with PBS. Brains were collected and placed on a 1 mm sagittal brain block. Brains were sliced at the midline and 3 mm right of the midline. One hemisphere was fixed in 4% PFA and sectioned at 50 microns on a vibratome. Immunohistochemistry was performed on free-floating sections. For mitochondrial ATP synthase subunit C (SubC), glial fibrillary acidic protein (GFAP), and cluster of differentiation 68 (CD68) immunolabeling, primary antibodies included anti-SubC (Abcam, ab181243; 1:1000), anti-GFAP (Dako, Z0334; 1:5000), anti-CD68 (AbD Serotec, MCA1957; 1:2000), and secondary antibodies included anti-rabbit biotinylated (Vector Labs, BA-1000 1:1000) and anti-rat (Vector Labs, BA-9400 1:1000). Coverslips were mounted on slides using antifade-mounting media and were stored in the dark before imaging. Sections were imaged and analyzed using an Aperio Digital Pathology Slide Scanner (AT2) and associated software. Images were extracted from S1BF of the somatosensory cortex and the VPM/VPL of the thalamus, with multiple images taken of multiple tissues from each animal.
# Short-term chronic treatment with AF38469 impacts glial activation in Cln3^Δex7/8 mice. Beginning at wean, wild type and Cln3^Δex7/8 mice were treated with vehicle (0.2408% DMSO) or AF38469 (0.03125 μg/ml, 0.3125 μg/ml, 3.125 μg/ml, 78.125 μg/ml) continuously through the drinking water continuing until sacrifice at 16 weeks. […]
compound,measurement,setting,value
"Cc1cccc(NC(=O)c2ccc(C(F)(F)F)cc2C(=O)O)n1 [AF38469, 2-((6-methylpyridin-2-yl)carbamoyl)-5-(trifluoromethyl)benzoic acid]",astroglial activation (GFAP),"0.03125 μg/ml, 0.3125 μg/ml, VPM/VPL of the thalamus",significantly and potently decreased
same,astroglial activation (GFAP),"0.03125 μg/ml, somatosensory cortex",significantly decreased
same,astroglial activation (GFAP),"AF38469 higher doses 3.125 μg/ml, 78.125 μg/ml, VPM/VPL of the thalamus and somatosensory cortex",increased or had no impact; also recorded: had no impact
same,GFAP reactivity,"lower doses, somatosensory cortex and the thalamus, summary statement",significantly decreased
"CC[C@H](C)[C@H](N)C(=O)NCCN1CCOCC1 [LM11A-31, N-[2-(morpholin-4-yl)ethyl]-L-isoleucinamide]",astroglial activation (GFAP),"LM11A-31 0.6 mg/mL, VPM/VPL of the thalamus and somatosensory cortex",decreasing trend; also recorded: trends towards decreased levels; also recorded: had no significant decrease
semaglutide,astrocytosis (GFAP),"semaglutide 2.571 μg/mouse, 25.71 μg/mouse s.c., S1BF, CA3, VPM/VPL",had no significant effect
